Several values for one entry are separate records, joined by “and”; a condition that tells them apart may be missing. Identical values can stand only once.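 Growth conditions: 96-well plates. Treatment: test compound, 48 hours, 5 concentrations. Analysis: linear interpolation between bracketing concentrations; unreached endpoints set to highest concentration. GI50 is the concentration that inhibits growth by half. TGI is the concentration that stops growth completely.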
Test system: HOP-92 NSCLC
Assay: NCI-60 cell line screen, 48 h

Structure (SMILES) | GI50 | TGI
C#Cc1ccc(-n2c(/C=C/c3ccc(C(F)(F)F)cc3)nc3ncccc3c2=O)cc1 | 1.32 µM | 3.44 µM
COc1cc(/C=N/NC(=O)c2ccc(C(F)(F)F)nc2Nc2ccc(Cl)cc2C)ccc1O | 1.59 µM | 7.58 µM
O=C(N/C(=C\c1ccc(/C=C(\NC(=O)c2ccccc2)c2nc3cc([N+](=O)[O-])ccc3[nH]2)cc1)c1nc2cc([N+](=O)[O-])ccc2[nH]1)c1ccccc1 |  | > 100 µM
COc1ccc(C(=O)Cn2c(C(=O)c3ccccc3)nc(-c3ccc(OC)cc3)c2-c2ccc(OC)cc2)cc1 | 24.5 µM | 60.4 µM
O=C1c2ccccc2C2C1N2C(=O)C(F)(F)F (configuration not stated) |  | > 100 µM
CC1=C(C(=O)NCc2ccccc2)C(/C=C/c2ccccc2)C(C(=O)NCc2ccccc2)=C(C)N1 |  | > 100 µM
CSc1nc2c(c(=O)[nH]1)N=C1c3ccccc3C(=O)C1C(c1ccccc1)N2 (configuration not stated) | 12 µM | > 100 µM
CCOC(=O)[C@]1(OC(C)=O)C[C@H](OC(C)=O)[C@@H](C(F)COP(=O)(OCc2ccccc2)OCc2ccccc2)O1 (some centres not stated) |  | 34.5 µM

Test system: HT29 colon
Assay: NCI-60 cell line screen, 48 h

Structure (SMILES) | TGI | GI50
COC1CCC2C(NS(=O)(=O)c3ccc(C)cc3)CCCC2O1 (configuration not stated) (tested in a mixture with another compound) | > 34.5 µM | 
O=C1/C(=C/c2cccc([N+](=O)[O-])c2)COc2ccc(O)cc21 | 4.58 µM | 1.92 µM
CCCCC(=O)OCC(=O)[C@]1(O)Cc2c(O)c3c(c(O)c2[C@@H](OC2CC(NC(=O)C(F)(F)F)C(O)C(C)O2)C1)C(=O)c1c(OC)cccc1C3=O (some centres not stated) | > 100 µM | 
C[C@]12CC[C@H](O)CC1=CC[C@@H]1C2CC[C@]2(C)C(=O)N(N)C(=O)CC12 (some centres not stated) | > 100 µM | 
C=C(CN1CCN(c2ccc(Cl)cc2F)CC1)c1ccc(C(=O)Nc2ccccc2N)cc1 | > 100 µM | 2.96 µM
CC(C)=CC(=O)C1c2cccc(O)c2C(=O)c2c(O)cc(C)cc21 (configuration not stated) | 20.5 µM | 
COC(CN1C(=O)c2cccc3cccc(c23)C1=O)OC | > 100 µM | 
O=C1C=C(Cl)C(=O)C(c2ccc(Cl)cc2)=C1 | 62.8 µM | 
Cc1ccc2c(=O)cc(-c3ccc(F)cc3)[nH]c2n1 | > 100 µM | 
CCOc1ccc(NC(=O)C(=O)CC(=O)c2c[n+](=O)c3cc(C)c(C)cc3n2[O-])cc1 | > 100 µM | 
Cn1cc(C2=C(c3cn(C)c4ncccc34)C(=O)NC2=O)c2ccccc21 | > 24.1 µM | 6.47 µM
O=C1C(Cl)=C(Nc2cccc(Cl)c2)C(=O)N1Cc1ccc(Cl)cc1Cl | 14.7 µM | 0.971 µM
CC(=O)NNc1nc(C)c(C(=O)NNC(=O)C(=O)Nc2ccc(Cl)cc2)s1 | > 100 µM | 
O=C(/C=C/C12c3ccccc3C(c3ccccc31)C1C(=O)NC(=O)C12)c1ccncc1 (configuration not stated) | 4.35 µM | 1.96 µM
CC1(C)CCc2c(c3c(c4c(=O)c(O)c(-c5ccc(O)cc5)oc24)OC(C)(C)CC3)O1 | > 100 µM | > 100 µM
CC12CCC(O)CC1CCC1C2CCC2(C)C(C3=CC(=O)OC3)CCC12O (configuration not stated) | 13.6 µM | 
CN/N=C(/Cc1occc(=O)c1O)C(=O)Nc1ccccc1C | > 100 µM | 
Cc1coc2c1CC1(C)C(CCC(O)C1C)C2 (configuration not stated) | > 100 µM | 
COc1ccc2c(c1)/C(=C/c1c(C)nc3sc(C)nn13)C(=O)N2 | > 100 µM | 0.451 µM
Cc1cc(I)cc(CN(C)CCCCN2CCCCC2)c1O | 14.2 µM | 3.21 µM
Cc1ccc(C(=O)/C(=C/c2ccc([N+](=O)[O-])cc2)SCc2ccc(Cl)cc2)cc1 | 2.86 µM | 0.676 µM
O=C(Nc1ccc(Cl)c(Cl)c1)Nc1ccc(Cl)c(Cl)c1 | 12.9 µM and 6.82 µM | 3.27 µM and 2.43 µM
C#Cc1ccc(-n2c(/C=C/c3ccc(C(F)(F)F)cc3)nc3ncccc3c2=O)cc1 | 3.95 µM | 2.03 µM
COc1cc(/C=N/NC(=O)c2ccc(C(F)(F)F)nc2Nc2ccc(Cl)cc2C)ccc1O | 16.2 µM | 4.45 µM
O=C(N/C(=C\c1ccc(/C=C(\NC(=O)c2ccccc2)c2nc3cc([N+](=O)[O-])ccc3[nH]2)cc1)c1nc2cc([N+](=O)[O-])ccc2[nH]1)c1ccccc1 | > 100 µM | 
COc1ccc(C(=O)Cn2c(C(=O)c3ccccc3)nc(-c3ccc(OC)cc3)c2-c2ccc(OC)cc2)cc1 | > 100 µM | > 100 µM
O=C1c2ccccc2C2C1N2C(=O)C(F)(F)F (configuration not stated) | > 100 µM | 
CC1=C(C(=O)NCc2ccccc2)C(/C=C/c2ccccc2)C(C(=O)NCc2ccccc2)=C(C)N1 | > 100 µM | 
CSc1nc2c(c(=O)[nH]1)N=C1c3ccccc3C(=O)C1C(c1ccccc1)N2 (configuration not stated) | > 100 µM | 2.97 µM
CCOC(=O)[C@]1(OC(C)=O)C[C@H](OC(C)=O)[C@@H](C(F)COP(=O)(OCc2ccccc2)OCc2ccccc2)O1 (some centres not stated) | 83 µM and > 100 µM | 28.2 µM and > 100 µM

— PubChem BioAssay (NCI)
